According to patent US5399696A, “Isoquinolinyl compounds which are intermediates” (Eli Lilly and Company, priority 1993, dated 1995):

Assays:
[1] = molecular target: NMDA receptor; assay: Radioligand binding: displacement of [^3 H]CGS19755 from synaptosomal membranes of rat forebrain (NMDA receptor affinity); settings: [^3 H]CGS19755 10 nM, mean ± standard error (n = 3), values marked ^c single experiment
Procedure: (§1) The formula I compounds were tested for their ability to inhibit NMDA, AMPA, and kainic acid receptor binding to rat membranes in a radioligand binding assay using [^3 H]CGS19755, [^3 H]AMPA, and [^3 H]KA. For all radioligand binding assays, male Sprague-Dawley rats were used. […] Non-specific binding was determined using 10 μM L-glutamate. Samples were incubated in an ice-bath for 30 minutes, and bound ligand was separated from the free ligand by rapid filtration through WHATMAN GF/B glass fiber filters. Murphy et al, British J. Pharmacol., 95, 932-938 (1988). Kainate binding was performed using washed synaptosomal membranes from the rat forebrain as described by Simon et al. Simon et al, J. Neurochem., 26, 141-147 (1976). Tritiated kainate (5 nM) was added to 50 mM Tris-HCl buffer (pH 7.4 at 4° C.) containing 200-300 μg/ml of tissue protein. Samples were incubated for 30 minutes in an ice-bath, then rapidly filtered using a Brandel cell harvester and WHATMAN GF/C filters. Filters were washed twice with 3 ml of cold buffer. Non-specific binding was determined using 100 μM non-labeled kainate. The binding of [^3 H]AMPA (5 nM) was conducted with crude membranes of rat forebrain in the presence of 100 mM KSCN as described by Nielson et al. Nielson et al, Eur. J. Med. Chem. Chim. Ther., 21, 433-437 (1986). Non-specific binding was determined with 10 μM non-labeled AMPA. The concentration of the formula I compound that inhibited 50% binding (IC50, mean ±standard error, n=3) as calculated by linear regression of displacement data transformed to the Hill equation as described by Bennett. Bennett, Neurotransmitter Receptor Binding, 57-90 (1978).

[2] = molecular target: AMPA receptor; assay: Radioligand binding: [^3 H]AMPA binding with crude membranes of rat forebrain; settings: [^3 H]AMPA 5 nM, 100 mM KSCN, mean ± standard error (n = 3), values marked ^c single experiment, read-out: IC50 AMPA, receptor binding
Procedure: as §1

[3] = molecular target: kainic acid (KA) receptor; assay: Radioligand binding: tritiated kainate binding with washed synaptosomal membranes from the rat forebrain; settings: tritiated kainate 5 nM, pH 7.4, mean ± standard error (n = 3), values marked ^c single experiment
Procedure: as §1

[4] = test system: NMDA receptor; assay: Antagonism of NMDA-induced depolarization of rat cortical wedges; assay type: cell-based; settings: NMDA 40 μM, mean ± standard error (n = 3), read-out: IC50 NMDA, antagonism of cortical wedge depolarization
Procedure: (§2) The depolarization of rat cortical wedges was used to test the selectivity and potency of the formula I compounds as AMPA antagonists using a technique similar to that described by Harrison and Simmonds. Harrison and Simmonds, Bri. J. Pharmacol., 84, 381-391 (1984). Generally, 4-ml aliquots of NMDA (40 μM), AMPA (40 μM), and kainate (10 μM) were superfused (2 ml/min.) on the grey matter at intervals of 15-20 minutes until stable responses were attained. The tissue was then exposed for 15 minutes to various concentrations of the formula I compounds before retesting the agonists. The IC50 values were calculated from linear regression of log dose-response curves, each point the mean of at least three observations on separate slices from more than one animal.

[5] = test system: AMPA receptor; assay: Antagonism of AMPA-induced depolarization of rat cortical wedges; assay type: cell-based
Procedure: as §2

[6] = test system: kainic acid (KA) receptor; assay: Antagonism of kainate-induced depolarization of rat cortical wedges; assay type: cell-based; settings: kainate 10 μM, mean ± standard error (n = 3)
Procedure: as §2

[7] = Table III; racemic; AMPA 40 μM; mean ± standard error (n = 3); read-out: IC50 AMPA, antagonism of cortical wedge depolarization

| IC50 ([5]; Table IV; enantiopure; AMPA 40 μM; mean ± standard error (n = 3); read-out: IC50 AMPA, antagonism of cortical wedge depolarization) | Structure (SMILES) | IC50 ([1]; Table I, racemic) | IC50 ([2]; Table I, racemic) | IC50 KA, receptor binding ([3]; Table I, racemic) | IC50 ([4]; Table III, racemic) | IC50 [5, 7] | IC50 KA, antagonism of cortical wedge depolarization ([6]; Table III, racemic) | IC50 ([1]; Table II, enantiopure) | IC50 ([2]; Table II, enantiopure) | IC50 KA, receptor binding ([3]; Table II, enantiopure) | IC50 ([4]; Table IV, enantiopure) | IC50 KA, antagonism of cortical wedge depolarization ([6]; Table IV, enantiopure) | IC50 ([5]; read-out: IC50 AMPA, antagonism of cortical wedge depolarization; Table IV; enantiopure; AMPA 40 μM; mean ± standard error (n = 3)) |
| --- | --- | --- | --- | --- | --- | --- | --- | --- | --- | --- | --- | --- | --- |
| – | O=C(O)[C@@H]1C[C@H]2C[C@H](CCS(=O)(=O)O)CC[C@H]2CN1 (racemic) [Compound 12, (3SR,4aRS,6RS,8aRS)-6-(2-Sulfoethyl)decahydroisoquinoline-3-carboxylic Acid] | 61.8 µM | 11.1 µM | > 100 µM | > 100 µM | 31.4 ± 1.7 µM | 100 µM | – | – | – | – | – | – |
| – | O=C(O)[C@@H]1C[C@H]2C[C@@H](CCSc3nnn[nH]3)CC[C@H]2CN1 (racemic) [Compound 9, (3SR,4aRS,6SR,8aRS)-6-[3-(1(2)H-Tetrazole-5-yl)-3-thiaprop-1-yl]decahydroisoquinoline-3-carboxylic Acid] | > 100 µM | 56.2 ± 4.6 µM | > 100 µM | > 100 µM | 32.2 ± 1.7 µM | > 100 µM | – | – | – | – | – | – |
| – | O=C(O)[C@@H]1C[C@H]2C[C@@H](CSc3ncn[nH]3)CC[C@H]2CN1 (racemic) [Compound 14, (3SR,4aRS,6SR,8aRS)-6-[2-(1(2-4)H-1,2,4-Triazol-5-yl)-2-thiaethyl]decahydroisoquinoline-3-carboxylic Acid] | > 10 µM | > 10 µM | > 10 µM | > 100 µM | 68.8 ± 12.3 µM | > 100 µM | – | – | – | – | – | – |
| – | O=C(O)[C@@H]1C[C@H]2C[C@@H](C=Cc3nsnc3O)CC[C@H]2CN1 (racemic) [Compound 20, (3SR,4aRS,6SR,8aRS)-6-[2-(3-Hydroxy-1,2,5-thiadiazole-4-yl)ethenyl]decahydroisoquinoline-3-carboxylic Acid] | > 100 µM | 83.4 µM | > 100 µM | > 100 µM | 100 µM | > 100 µM | – | – | – | – | – | – |
| 1.35 ± 0.35 µM | O=C(O)[C@@H]1C[C@H]2C[C@@H](CSc3nn[nH]n3)CC[C@H]2CN1 [Compound 23] | – | – | – | – | – | – | 16.3 µM | 0.58 ± 0.03 µM | 12.5 µM | 22.9 ± 3.8 µM | > 31.6 µM | – |
| – | O=C(O)[C@@H]1C[C@H]2C[C@@H](COCc3nnn[nH]3)CC[C@H]2CN1 (racemic) [Compound 7, (3SR,4aRS,6SR,8aRS)-6-[(1(2)H-Tetrazole-5-yl)methoxymethyl]decahydroisoquinoline-3-carboxylic Acid] | > 10 µM | > 10 µM | > 10 µM | > 100 µM | 16 ± 1.4 µM | > 100 µM | – | – | – | – | – | – |
| – | O=C(O)[C@@H]1C[C@H]2C[C@H](CCSc3nnn[nH]3)CC[C@H]2CN1 (racemic) [Compound 8, (3SR,4aRS,6RS,8aRS)-6-[3-(1(2)H-Tetrazole-5-yl)-3-thiaprop-1-yl]decahydroisoquinoline-3-carboxylic Acid] | 49.2 ± 1.86 µM | 10.6 ± 2 µM | 28.76 ± 2.21 µM | > 100 µM | 6.8 ± 1.5 µM | 18.1 ± 5.1 µM | – | – | – | – | – | – |
| – | O=C(O)[C@@H]1C[C@H]2C[C@@H](CCc3nn[nH]n3)CC[C@H]2CN1 [Compound 21, (3S,4aR,6R,8aR)-(-)-6-[2-(1(2)H-Tetrazole-5-yl)ethyl]decahydroisoquinoline-3-carboxylic Acid] | – | – | – | – | – | – | 12.1 ± 2 µM | 1.35 ± 0.13 µM | 28.1 ± 1.7 µM | < 100 µM | < 100 µM | 1.78 ± 0.23 µM |
| – | O=C(O)CC[C@H]1CC[C@H]2CN[C@H](C(=O)O)C[C@H]2C1 (racemic) [Compound 11, (3SR,4aRS,6RS,8aRS)-6-(2-Carboxyethyl)-decahydroisoquinoline-3-carboxylic Acid] | 43.9 ± 4.1 µM | 27.8 ± 0.6 µM | > 100 µM | 57 ± 4.4 µM | 42 ± 6.5 µM | > 100 µM | – | – | – | – | – | – |
